One experiment deals with T1, Rac-1 (Homo sapiens, UniProt P63000).
T1 construct: made in house
The experiment in a line: Ras GTP Binding Domain Inhibition Assay (Ras Superfamily Assay). The following applies: read-out: Rac-1: % inh. The gist of the method:
(§1)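 His-tagged GTPases immobilised on nickel-coated plates, pre-incubated with compound (20 μM single point, or serial dilution for IC50) 3 h at room temperature, with or without 10-30 μg/mL Sos (residues 556-1049) in the final hour. Bound Cy3- or Cy5-GTP (100 nM, 45 min) measured by fluorescence after washing.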

The test system of the next experiment is KRas wild type. Described as above. The following applies: 20 μM compound; for KRas wild type + SOS: % inh.: with SOS; for KRas wild type: % inh.: without SOS. In a few lines: as §1
Another experiment relates to KRas G12D mutant. Described as above. To be noted: 20 μM compound; for KRas G12D mutant + SOS: % inh.: with SOS; for KRas G12D mutant: % inh.: without SOS. The gist of the method: as §1
The next experiment deals with Akt phosphorylation. Description: Akt Phosphorylation Assay (western blot), Panc-1. The following applies: at 10 μM, * = activation. The experiment is classed as cell-based, human. In a few lines: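 Phospho-Akt (Ser473) was measured by western blot in lysates of KRas G12D Panc-1 cells exposed to test compound for 6 h at 37 °C, either at 10 μM final with 0.3% DMSO or as serial dilutions for IC50. One format used overnight 0.5% FBS starvation followed by a 15 min pulse of 1.5 ng/ml EGF. The other used cells in 10% FBS with no stimulation.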
Background: A western blot detects proteins with antibodies after separation by electrophoresis.

Regarding `COc1ccnc(Nc2nc(-c3nccn3C)nn3cc(-c4ccn(C(F)F)n4)c(C)c23)n1` [Compound 95, 6-(1-(Difluoromethyl)-1H-pyrazol-3-yl)-N-(4-methoxypyrimidin-2-yl)-5-methyl-2-(1-methyl-1H-imidazol-2-yl)pyrrolo[2,1-f][1,2,4]triazin-4-amine], the inhibition at 20 µM at Rac-1 was 76 to 100%. Also, in the experiment with KRas wild type, the “KRas wild type + SOS: % inh.” value is recorded as “B (B = 26-49% inhibition)” and the “KRas wild type: % inh.” value is on record as “C (C = 50-75% inhibition)”. Also, in the experiment with KRas G12D mutant, the “KRas G12D mutant + SOS: % inh.” value is reported as “C (C = 50-75% inhibition)” and the “KRas G12D mutant: % inh.” value was “C (C = 50-75% inhibition)”. Also, in the experiment on Akt phosphorylation, the “% inh of Akt phosphorylation in Panc-1” value is recorded as “D* (85-100% activation)”.

On to `Cc1c(-c2ccn(C)n2)cn2nc(-c3nccn3C)nc(Nc3nnco3)c12.Cl` [Compound 119, N-(5-Methyl-2-(1-methyl-1H-imidazol-2-yl)-6-(1-methyl-1H-pyrazol-3-yl)pyrrolo[2,1-f][1,2,4]triazin-4-yl)-1,3,4-oxadiazol-2-amine hydrochloride salt], for which, at Rac-1, the inhibition at 20 µM lay in the range of 26 to 49%. In the experiment with KRas wild type, the “KRas wild type + SOS: % inh.” value is listed as “A (A = 1-25% inhibition)” and the “KRas wild type: % inh.” value is listed as “C (C = 50-75% inhibition)”. In the experiment on KRas G12D mutant, the “KRas G12D mutant + SOS: % inh.” value is given as “B (B = 26-49% inhibition)” and the “KRas G12D mutant: % inh.” value is recorded as “C (C = 50-75% inhibition)”. Moreover, in the experiment on Akt phosphorylation, the “% inh of Akt phosphorylation in Panc-1” value is reported as “D* (85-100% activation)”.

`COc1ccnc(Nc2nc(-c3nccn3C)nn3cc(-c4cccnc4)c(C)c23)n1` [Compound 158, N-(4-Methoxy-pyrimidin-2-yl)-5-methyl-2-(1-methyl-1H-imidazol-2-yl)-6-(pyridin-3-yl)pyrrolo[2,1-f][1,2,4]triazin-4-amine]: the inhibition at 20 µM at Rac-1 lay in the range of 76 to 100%. Besides, in the experiment on KRas wild type, the “KRas wild type + SOS: % inh.” value is “D (D = 76-100% inhibition)” and the “KRas wild type: % inh.” value is “D (D = 76-100% inhibition)”. In the experiment on KRas G12D mutant, the “KRas G12D mutant + SOS: % inh.” value is on record as “D (D = 76-100% inhibition)” and the “KRas G12D mutant: % inh.” value was “D (D = 76-100% inhibition)”. In the experiment with Akt phosphorylation, the “% inh of Akt phosphorylation in Panc-1” value was “D* (85-100% activation)”.

With `Cc1c(-c2ccn(C)n2)cn2nc(-c3nccn3C)nc(Nc3cc(C4CC4)[nH]n3)c12` [Compound 104, N-(5-Cyclopropyl-1H-pyrazol-3-yl)-5-methyl-2-(1-methyl-1H-imidazol-2-yl)-6-(1-methyl-1H-pyrazol-3-yl)pyrrolo[2,1-f][1,2,4]triazin-4-amine], the inhibition at 20 µM on Rac-1 is 76 to 100%. Also, in the experiment with KRas wild type, the “KRas wild type + SOS: % inh.” value was “D (D = 76-100% inhibition)” and the “KRas wild type: % inh.” value is recorded as “D (D = 76-100% inhibition)”. Moreover, in the experiment with KRas G12D mutant, the “KRas G12D mutant + SOS: % inh.” value is given as “D (D = 76-100% inhibition)” and the “KRas G12D mutant: % inh.” value is listed as “D (D = 76-100% inhibition)”. Moreover, the “% inh of Akt phosphorylation in Panc-1” value in the experiment with Akt phosphorylation is “D* (85-100% activation)”.

For `COc1cccnc1Nc1nc(-c2nccn2C)nn2cc(-c3ccn(C)n3)c(C)c12` [Compound 112, N-(3-Methoxypyridin-2-yl)-5-methyl-2-(1-methyl-1H-imidazol-2-yl)-6-(1-methyl-1H-pyrazol-3-yl)pyrrolo[2,1-f][1,2,4]triazin-4-amine], at Rac-1, the inhibition at 20 µM came out at 0%. For the same compound, in the experiment with KRas wild type, the “KRas wild type + SOS: % inh.” value was 0 (0 = 0% inhibition) and the “KRas wild type: % inh.” value is “A (A = 1-25% inhibition)”. Further, in the experiment with KRas G12D mutant, the “KRas G12D mutant + SOS: % inh.” value is recorded as “A (A = 1-25% inhibition)” and the “KRas G12D mutant: % inh.” value is “A (A = 1-25% inhibition)”. Besides, the “% inh of Akt phosphorylation in Panc-1” value with Akt phosphorylation is given as “D* (85-100% activation)”.

In the case of `COCCO[C@H]1C[C@H](Nc2nc(-c3nccn3C)nn3cc(-c4cccnc4)c(C)c23)C1` [Compound 152, N-((1r,3r)-3-(2-methoxyethoxy)cyclo-butyl)-5-methyl-2-(1-methyl-1H-imidazol-2-yl)-6-(pyridin-3-yl)pyrrolo[2,1-f][1,2,4]triazin-4-amine], the inhibition at 20 µM on Rac-1 lay in the range of 50 to 75%. Also, in the experiment with KRas wild type, the “KRas wild type + SOS: % inh.” value was “B (B = 26-49% inhibition)” and the “KRas wild type: % inh.” value was “C (C = 50-75% inhibition)”. In the experiment on KRas G12D mutant, the “KRas G12D mutant + SOS: % inh.” value is on record as “C (C = 50-75% inhibition)” and the “KRas G12D mutant: % inh.” value was “C (C = 50-75% inhibition)”. Further, the “% inh of Akt phosphorylation in Panc-1” value in the experiment on Akt phosphorylation is reported as “B* (26-49% activation)”.

Turning to `Cc1c(-c2ccn(C)n2)cn2nc(-c3nccn3C)nc(Nc3cn(C(C)C)nn3)c12` [Compound 109, N-(1-Isopropyl-1H-1,2,3-triazol-4-yl)-5-methyl-2-(1-methyl-1H-imidazol-2-yl)-6-(1-methyl-1H-pyrazol-3-yl)pyrrolo[2,1-f][1,2,4]triazin-4-amine], the inhibition at 20 µM at Rac-1 was in the range of 76 to 100%. For the same compound, in the experiment on KRas wild type, the “KRas wild type + SOS: % inh.” value is reported as “C (C = 50-75% inhibition)” and the “KRas wild type: % inh.” value was “D (D = 76-100% inhibition)”. In the experiment with KRas G12D mutant, the “KRas G12D mutant + SOS: % inh.” value is listed as “C (C = 50-75% inhibition)” and the “KRas G12D mutant: % inh.” value is reported as “D (D = 76-100% inhibition)”. Moreover, in the experiment on Akt phosphorylation, the “% inh of Akt phosphorylation in Panc-1” value is on record as “D* (85-100% activation)”.

Turning to `COc1cnc(Nc2nc(-c3nccn3C)nn3cc(-c4ccn(C)n4)c(C)c23)cn1` [Compound 110, N-(5-Methoxypyrazin-2-yl)-5-methyl-2-(1-methyl-1H-imidazol-2-yl)-6-(1-methyl-1H-pyrazol-3-yl)pyrrolo[2,1-f][1,2,4]triazin-4-amine], the inhibition at 20 µM on Rac-1 fell in the range of 50 to 75%. In the experiment on KRas wild type, the “KRas wild type + SOS: % inh.” value was “C (C = 50-75% inhibition)” and the “KRas wild type: % inh.” value is recorded as “B (B = 26-49% inhibition)”. Besides, in the experiment on KRas G12D mutant, the “KRas G12D mutant + SOS: % inh.” value is “B (B = 26-49% inhibition)” and the “KRas G12D mutant: % inh.” value is given as “C (C = 50-75% inhibition)”. In the experiment on Akt phosphorylation, the “% inh of Akt phosphorylation in Panc-1” value was “C* (46-84% activation)”.

As to `Cc1c(-c2ccn(C(C)C)n2)cn2nc(-c3nccn3C)nc(Nc3nccn3C)c12` [Compound 93, 6-(1-Isopropyl-1H-pyrazol-3-yl)-5-methyl-N,2-bis(1-methyl-1H-imidazol-2-yl)pyrrolo[2,1-f][1,2,4]triazin-4-amine], the inhibition at 20 µM on Rac-1 was in the range of 76 to 100%. In addition, in the experiment on KRas wild type, the “KRas wild type + SOS: % inh.” value is listed as “D (D = 76-100% inhibition)” and the “KRas wild type: % inh.” value is given as “D (D = 76-100% inhibition)”. In the experiment on KRas G12D mutant, the “KRas G12D mutant + SOS: % inh.” value is recorded as “D (D = 76-100% inhibition)” and the “KRas G12D mutant: % inh.” value was “D (D = 76-100% inhibition)”. In addition, the “% inh of Akt phosphorylation in Panc-1” value in the experiment with Akt phosphorylation is “D* (85-100% activation)”.

The values are drawn from US12459951B2, “Compounds that interact with RAS superfamily proteins for treatment of cancers, inflammatory diseases, rasopathies, and fibrotic disease” (SHY Therapeutics, LLC, priority 2022, dated 2025).
